Where two headings read alike, the source gives them in different places.

Consider 1 molecule from article PMC12267471, “Discovery of natural scaffolds as HER2 inhibitors for breast cancer: virtual screening, molecular dynamics, and biological characterization with selectivity profiling” (Scientific Reports, 2025).

In one assay the test system is BT-474 cells. Nature of the assay: Wound healing assay, BT-474. It is filed as cell-based. The conditions noted are these: Homo sapiens. The protocol:
In a sterile flat-bottom 24-well plate, SKBR3 and BT-474 breast cancer cells were plated at a density of 1 × 10^5 cells/well. […] Wounds were then inflicted across each cell monolayer using a sterile 200 µL pipette tip. Media was aspirated, and cells were washed twice with PBS to remove floating cells and cell debris. Fresh serum-free media was placed up against the well wall to cover the bottom of the well and prevent further cell detachment. Incubation of cells was resumed for five hours at 37 °C in a humidified CO2 incubator. Subsequently, the media were substituted with fresh ones containing various doses of liquiritin, oroxin B, or DMSO as a vehicle control (3 replicates/group) along with EGF (100 ng/mL) as a scattering factor. Wound closure was microscopically monitored in vehicle-treated control wells, and the time frame for wound closure was determined to be 72 h. Before the closure of wounds in the vehicle-treated control wells, the media were removed, cells were washed with PBS and completely fixed using cold methanol for 20 min at 4 °C. An inverted VistaVision microscope was used to take pictures of the wounds monitored at zero and 72 h with a VistaVision Still camera (VWR, Radnor, PA).
Results were expressed as a percentage of cell migration according to the following Equation[16]: [drawing 2]
Where Tt is the wound thickness in treatment wells, TDMSO is the thickness of the wound in control wells treated by DMSO, and Tº is the thickness of the wound at zero time. Wound thickness was calculated in three or more randomly selected fields per treatment group.

Another assay deals with SKBR3 cells. In words: MTT proliferation assay, SKBR3. It is filed as cell-based, human. As to conditions: Homo sapiens, SK-BR-3.
The target in the next assay is T1, HER2 kinase (Homo sapiens, UniProt P04626).
T1 construct: HER2 purified kinase domain (amino acids 676–1255); purchased Thermo Fischer Scientific PV3590
T1 sequence (P04626 676-1255): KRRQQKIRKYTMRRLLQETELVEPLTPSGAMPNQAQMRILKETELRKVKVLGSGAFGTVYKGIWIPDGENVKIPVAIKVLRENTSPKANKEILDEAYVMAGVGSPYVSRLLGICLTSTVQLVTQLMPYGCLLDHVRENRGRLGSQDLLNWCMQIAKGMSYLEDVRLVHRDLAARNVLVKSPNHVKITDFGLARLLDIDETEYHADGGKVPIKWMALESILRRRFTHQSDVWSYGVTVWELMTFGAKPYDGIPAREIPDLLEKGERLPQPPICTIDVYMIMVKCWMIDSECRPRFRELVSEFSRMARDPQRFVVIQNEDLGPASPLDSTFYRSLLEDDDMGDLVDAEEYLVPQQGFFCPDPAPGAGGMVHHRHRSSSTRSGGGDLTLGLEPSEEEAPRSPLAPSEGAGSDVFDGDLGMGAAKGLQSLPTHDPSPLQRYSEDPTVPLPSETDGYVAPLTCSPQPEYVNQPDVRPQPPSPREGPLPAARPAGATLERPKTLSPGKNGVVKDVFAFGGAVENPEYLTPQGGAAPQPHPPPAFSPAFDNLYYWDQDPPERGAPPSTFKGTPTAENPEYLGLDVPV
In words: Z'-LYTE Kinase Assay-Tyr6 Peptide biochemical HER2 kinase assay. As to conditions: cell-free Z'-LYTE, Tyr6 peptide substrate; read-out: IC50, inhibition of ATP-induced HER2 phosphorylation. The text has this: The Z’-LYTE™ Kinase Assay-Tyr6 Peptide kit (Thermo Fischer Scientific™, Madison, WI, USA) was employed to evaluate the potential of selected natural products to suppress the catalytic activity of HER2 kinase. The assay adopts a Fluorescence Resonance Energy Transfer (FRET) based method in a cell-free coupled-enzyme format with no use of antibodies. The assay method mainly relies on the difference in sensitivity of phosphorylated and non-phosphorylated peptides to proteolytic cleavage. This method is a ratio metric method that calculates the Emission Ratio of donor emission divided by acceptor emission after excitation of the donor fluorophore at 400 nm. In this assay, 20 µL/well reactions containing kinase buffer, 200 µM ATP, 4µM Z’-LYTE Tyr6 Peptide substrate, 2500 ng/mL HER2 kinase, and drugs of interest functioning as inhibitors were set up in 96-well plates. Each well received 10 µL of site-specific protease development solution after one hour of room temperature incubation. The incubation continued for a full hour. Following process termination, the kinase inhibitory activity and/or peptide substrate cleavage status were assessed using a plate reader (BioTek FLx800™) to measure the ratio of fluorescence signal at 445 nm (coumarin)/520 nm (fluorescein).
The IC50 value for each natural product was computed using XLfit® 4.1 software (ID Business Solutions Inc. (IDBS), Emeryville CA), applying non-linear regression of log concentration against the percentage of HER2 inhibition.
Utilizing the Z’-LYTE™ Kinase Assay-Tyr6 Peptide kit as a cell-free system for evaluating the inhibitory activity of HER2, the five natural products were evaluated for their capacity to inhibit HER2 phosphorylation. Since its kinase catalysis is necessary for all HER2-mediated activities, we attempted at this initial stage to validate the HER2 inhibitory ability of the five in silico hits directly on the HER2 purified kinase domain (amino acids 676–1255), that was in vitro phosphorylated to attain the maximum level of intrinsic kinase activity. In this assay, the substrate was Z’-LYTE™ Tyr6 peptide; thus, the changes in its phosphorylation can directly correlate with the HER2 kinase activity. In the meantime, tyrphostin AG 1478 was used as a positive control to ensure the validity of the assay. Lapatinib (Tykerb®) was included as a second positive control to benchmark virtual hits’ performance against clinically approved standards.

Another assay has as its system caspase 3. In words: Real-time PCR caspase gene expression in BT-474 cells. It is filed as cell-based, human. The conditions noted are these: BT-474, liquiritin at its IC50. As to the method: (§1) RNA extraction was performed using Qiagen total RNA extraction kit from seeded BT-474 cells untreated and treated with liquiritin at a concentration equivalent to its respective IC50 value (determined via prior proliferation assays) according to the manufacturer’s manual. NanoDrop Lite Plus spectrophotometer™ (ThermoScientific, USA) was used for quantitation and purity evaluation of the extracted total RNA. cDNA synthesis and real-time quantitative PCR were performed in one reaction tube using iScript™ One-Step RT-PCR Kit with SYBR® Green (Bio-Rad, USA) using primers listed in Table S2 per the instruction’s manual. The relative gene expression of caspases 3, 8, and 9 was analyzed using the 2^−ΔΔCT method along with untreated BT-474 cells as control and Glyceraldehyde-3-phosphate dehydrogenase (GAPDH) as a housekeeping gene. The data were expressed as fold change in gene expression.
(In general: Real-time PCR tracks product formation cycle by cycle.)

A further assay has as its system caspase 9. The description is as above. As to conditions: BT-474, liquiritin at its IC50. It is filed as cell-based, human. The protocol: as §1
A further assay has as its system caspase 8. The assay is described as above. The conditions noted are these: BT-474, liquiritin at its IC50. It is filed as cell-based, human. As to the method: as §1

As to `O=C1C[C@@H](c2ccc(O[C@@H]3O[C@H](CO)[C@@H](O)[C@H](O)[C@H]3O)cc2)Oc2cc(O)ccc21` [Liquiritin], in the assay with BT-474 cells (BT-474, 2 µM, 72 h, read-out: inhibition of cell migration), the inhibition at 2 µM is 20%. Moreover, the inhibition at 3 µM in the assay on BT-474 cells (BT-474, 3 µM, 72 h, read-out: inhibition of cell migration) is 25.6%. For the same molecule, the inhibition at 5 µM with BT-474 cells (BT-474, 5 µM, 72 h, read-out: inhibition of cell migration) is 31.2%. The inhibition at 10 µM in the assay on BT-474 cells (BT-474, 10 µM, 72 h, read-out: inhibition of cell migration) was found to be 50.6%. Moreover, the IC50 is 10.4 µM in the assay with BT-474 cells (BT-474, wound healing, read-out: IC50, cell migration); 6.4 µM in the assay with SKBR3 cells (SKBR3, MTT, 48 h (Table S8), read-out: Cell growth inhibition IC50); 6.4 ± 0.2 µM in the assay with SKBR3 cells (SKBR3, Table S9, read-out: IC50); 0.0185 µM on HER2 kinase. In addition, the “caspase 3 expression, fold change vs untreated cells” value with caspase 3 is on record as “approximately 10.8 fold”. In the assay with caspase 9, the “caspase 9 expression, fold change vs untreated cells” value is given as approximately 8.1 fold. In addition, the “caspase-8 expression, fold increase” value with caspase 8 is listed as 2.6 fold.
